Reference: paper PMC10215143, “D- and N-Methyl Amino Acids for Modulating the Therapeutic Properties of Antimicrobial Peptides and Lipopeptides” (Antibiotics, 2023)
In brackets after ≈: the same amount, converted by molar mass. Like-named read-outs stand apart in the source and are kept apart here. Where a SMILES comes first, the peptide text is derived from it. Where no end group is shown, it is not given here. [ ]: non-standard residue; d: D form. The star is where a group is joined. NMeF = CN[C@@H](Cc1ccccc1)C(=O)O; Decanoyl = CCCCCCCCCC(=O)*

Key:
[1] = system: HeLa cells; conditions: for IC50: 24 h
Method: We assessed the cytotoxicity of the compounds synthesized using HeLa cells.
The 3–4,5-dimethylthiazol-2,5-biphenyl tetrazolium bromide (MTT) cell viability assay was used to assess the cytotoxic activity of synthetic compounds against the human HeLa line. HeLa cells were seeded in 96-well plates at 1 × 10^5 cells/well, in which the peptide solution was added at different concentrations (3.125–400 μM) for 24 h of incubation. Next, MTT reagent (Sigma-Aldrich, St. Louis, MO, USA) was added, and the cells were incubated for 2 h. Then, 100 μL of dimethylsulfoxide (DMSO) was added to each well to dissolve formazan crystals, and the plates were read at 595 nm.

[2] = Critical micelle concentration by conductimetry in Milli-Q water; assay type: physicochemical; conditions: 25 °C
Method: On the other hand, acylation confers that the peptide has capacity to self-assemble into nanostructures, resulting in a surfactant-like structure, which may affect the extent of peptide insertion and disruption of bacterial membrane integrity. In this work, the CMC of the lipopeptides was determined by conductimetry in Milli-Q water. All the lipopeptides adopted a micellar assembly with CMC values ranging from 2.0 to 5.7 mM (Table 1). […] This effect appeared to be more important when substitution by an N-methyl amino acid was performed on amino acids located on the non-polar face of the amphipathic helix (CMC values of C10:0-A2(8-NMePhe) = 2.01 mM). For all the lipopeptides, the CMC values remained above the MIC values, which could indicate that these molecules interact with the cell membrane as monomers and, consequently, that this property would not be necessary for antimicrobial activity. This notion is in concordance with reports in the literature on short cationic lipopeptides.
A lipopeptide solution was prepared in Milli Q water, and the specific conductivity of each lipopeptide solution, in a concentration ranging from 0.06 to 18 mg/mL, was measured using a drop conductivity meter (HORIBA, Kyoto, Japan), at 25 °C. Conductivity values were plotted vs. lipopeptide concentration (mS × cm^−1 vs. mg/mL), and the CMC was graphically determined.

[3] = system: E. faecalis ATCC 29212; assay type: cell-based, Enterococcus faecalis; conditions: ATCC 29212, 24 h
Method: (§1) The test was conducted in triplicate.

[4] = system: C. albicans PEEC 2; assay type: cell-based, Candida albicans; conditions: PEEC 2, 24 h
Method: (§2) Each inoculum was taken and the cellular concentration was adjusted to 2 × 10^3 CFU/mL in Sabouraud Dextrose Broth (SDB) (Biokar Diagnostics, Cedex, France). Next, 50 µL of these inocula was added to 50 µL of peptide solution in serial 2-fold dilutions. […] […] The test was conducted in triplicate.

[5] = system: Human erythrocytes; assay: Hemolysis assay; assay type: cell-based; conditions: human erythrocytes 0.4% (v/v), 37 °C, 60 min, 6.25 to 400 µM
Method: (§3) Hemolytic activity was determined using red blood cells and the hemoglobin released was measured at 405 nm. The percentage of hemolysis corresponding to the synthetic compounds is shown in Figure 1 while the HC50 values are provided in Table 3. […] Substitutions by N-methyl and D-amino acids reduced the hemolytic activity of the peptides and lipopeptides. […] For all the peptides and most of the lipopeptides, the HC50 values exceeded 400 μM. Indeed, the HC50 values were lower only for C10:0-A2(9-NMeLys) and C10:0-A2, which were around 300 and 200 μM, respectively.
(§4) Erythrocyte lysis was determined using the following previously optimized protocols. Human erythrocytes from a healthy voluntary donor were isolated by centrifugation (3000 rpm for 10 min) after washing three times with Physiological Solution (PS). Erythrocyte solutions were prepared at a concentration of 0.4% (v/v) in PS. Test tubes containing 200 µL of erythrocyte solution were incubated at 37 °C for 60 min with 200 µL of peptide solution at concentrations ranging from 6.25 to 400 µM. After centrifugation at 3000 rpm for 5 min, supernatant absorbance was measured at 405 nm. Lysis induced by 1% Triton X-100 was taken as a 100% reference value.

[6] = system: Yeast; conditions: for MIC Average Yeast: 24 h; for TI Yeast, HC50/MIC average: first value of the cell, a single value holds for HC50 and IC50 (400 µM used); for TI Yeast, IC50/MIC average: second value of the cell, HeLa IC50 based
Method: Each inoculum was taken and the cellular concentration was adjusted to 2 × 10^3 CFU/mL in Sabouraud Dextrose Broth (SDB) (Biokar Diagnostics, Cedex, France). Next, 50 µL of these inocula was added to 50 µL of peptide solution in serial 2-fold dilutions. […] The MIC was considered the lowest peptide concentration that inhibited visible growth of each yeast strain. The test was conducted in triplicate.
(§5) The TI is defined as the relationship between the concentration that caused 50% of hemolysis (HC50) or a 50% reduction in HeLa cell viability and the MIC. Thus, higher TI values indicate greater antimicrobial specificity. […] The average MIC for each peptide against different microorganism groups was used to calculate the TI value.

[7] = system: E. coli ATCC 35218; assay type: cell-based, Escherichia coli; conditions: ATCC 35218, 24 h
Method: as §1

[8] = system: S. aureus ATCC 25923; assay type: cell-based, Staphylococcus aureus; conditions: ATCC 25923, 24 h
Method: as §1

[9] = system: S. aureus RM * SA1 (Methicillin-resistant Staphylococcus aureus); conditions: S. aureus RM * SA1 (MRSA)
[10] = system: Gram (−) bacteria; conditions: for MIC Average Bacteria Gram (−): average over Gram (−) strains; for TI Bacteria Gram (−), HC50/MIC average: first value of the cell, a single value holds for HC50 and IC50 (400 µM used); for TI Bacteria Gram (−), IC50/MIC average: second value of the cell, HeLa IC50 based
Method: (§6) The MIC against bacterial strains was determined by the modified broth microtiter dilution method, following the procedures proposed by R.E.W. Hancock Laboratory for testing antimicrobial peptides. The target strains Escherichia coli ATCC 35218, Pseudomonas aeruginosa ATCC 27853, Enterococcus faecalis ATCC 29212, and Staphylococcus aureus ATCC 25923 belong to the American Type Culture Collection (ATCC). The Methicillin-Resistant Staphylococcus aureus BSF FBCB1313 strain (MRSA) was provided by the Clinical Bacteriology Section of FBCB-UNL. All strains were activated by culture for 24 h at 37 °C in Mueller-Hinton Broth (MHB) (Biokar Diagnostics, Cedex, France). Each inoculum was taken and adjusted to a cellular concentration of 5 × 10^5 colony-forming units (CFU)/mL in diluted MHB. All the peptides were dissolved in bovine serum albumin buffer with the addition of 0.01% acetic acid; 100 µL of each inoculum was added to 11 µL of peptide solution in serial 2-fold dilutions and were incubated for 18–24 h at 37 °C. The MIC was the lowest peptide concentration that inhibited visible growth of each bacterial strain. The test was conducted in triplicate.
as §5

[11] = system: Gram (+) bacteria; conditions: for MIC Average Bacteria Gram (+): average over Gram (+) strains; for TI Bacteria Gram (+), HC50/MIC average: first value of the cell, a single value holds for HC50 and IC50 (400 µM used); for TI Bacteria Gram (+), IC50/MIC average: second value of the cell, HeLa IC50 based
Method: as §6, §5

[12] = system: P. aeruginosa ATCC 27853; assay type: cell-based, Pseudomonas aeruginosa; conditions: ATCC 27853, 24 h
Method: as §1

[13] = system: C. tropicalis DBFIQ 3; assay type: cell-based, Candida tropicalis; conditions: DBFIQ 3, 24 h
Method: as §2

[14] = system: Yeast; conditions: cited from earlier work
[15] = Hemolysis assay; assay type: cell-based, human; conditions: human, erythrocytes (red blood cells); at higher concentrations (400 μM)
Method: as §3, §4

[16] = in vitro; conditions: human, 50% (v/v) human serum in phosphate buffer, pH 7.2
Method: A 50% (v/v) human serum solution in phosphate buffer (pH: 7.2) was added to the peptide solution (concentration: 2 mg/mL) and incubated for 8 h at 37 °C. Aliquots were taken at different time points (0, 30, 60, 120, 240, 360, and 480 min) and serum proteins were immediately precipitated with a mixture of ACN-water-TFA (89:10:1). They were kept at 4 °C for 45 min and then centrifuged for 15 min at 10,000 rpm. The supernatants were then analyzed by HPLC-RP using a C18 analytical column (Beckman, Indianapolis, IN, USA). A linear gradient from 5% to 50% of ACN in H2O containing 0.1% TFA was used, at a flow rate of 0.8 mL/min. Absorbance was measured at 220 nm. […] The test was conducted in duplicate.

[17] = at 200 μM; cited from earlier work

| Compound | IC50 [1] [µM] | CMC [2] [mM] | MIC [3] [µM] | MIC [4] [µM] | HC50 ± SD [5] [µM] | MIC Average Yeast [6] [µM] | TI Yeast, HC50/MIC average [6] | MIC [7] [µM] | MIC [8] [µM] | MIC [9] [µM] | MIC Average Bacteria Gram (−) [10] [µM] | TI Bacteria Gram (−), HC50/MIC average [10] | MIC Average Bacteria Gram (+) [11] [µM] | TI Bacteria Gram (+), HC50/MIC average [11] | MIC [12] [µM] | MIC [13] [µM] | reduction of HeLa viability ([1]; HeLa cells, MTT) | hemolysis at 60 min, 400 µM [15] [%] | TI Yeast, IC50/MIC average [6] | TI Bacteria Gram (−), IC50/MIC average [10] | other results |
| --- | --- | --- | --- | --- | --- | --- | --- | --- | --- | --- | --- | --- | --- | --- | --- | --- | --- | --- | --- | --- | --- |
| CCCCCCCCCC(=O)N[C@H](C(=O)N[C@@H](CCCCN)C(=O)N[C@@H](CCC(N)=O)C(=O)N[C@H](C(=O)N[C@@H](CCCCN)C(=O)N[C@@H](CCCCN)C(=O)N[C@@H](CC(C)C)C(=O)N(C)[C@@H](Cc1ccccc1)C(=O)N[C@@H](CCCCN)C(=O)N[C@@H](CCCCN)C(N)=O)C(C)C)[C@@H](C)CC [C10:0-A2(8-NMePhe), C10:0-IKQVKKL(NMe-F)KK-NH2] (Decanoyl-IKQVKKL[NMeF]KK-NH2) | > 400 | 2.01 | 11.2 (≈ 16 µg/mL) | 179.5 (≈ 256 µg/mL) | >400 | 179.5 (≈ 256 µg/mL) | 2.2 | 11.2 (≈ 16 µg/mL) | 2.8 (≈ 4 µg/mL) | 5.6 (≈ 7.99 µg/mL) | 8.4 (≈ 12 µg/mL) | 47.6 | 6.5 (≈ 9.28 µg/mL) | 61.5 | 5.6 (≈ 7.99 µg/mL) | 179.5 (≈ 256 µg/mL) |  |  |  |  |  |
| CCCCCCCCCC(=O)N[C@H](C(=O)N[C@@H](CCCCN)C(=O)N[C@@H](CCC(N)=O)C(=O)N[C@H](C(=O)N[C@@H](CCCCN)C(=O)N[C@@H](CCCCN)C(=O)N[C@@H](CC(C)C)C(=O)N[C@@H](Cc1ccccc1)C(=O)N[C@@H](CCCCN)C(=O)N[C@@H](CCCCN)C(N)=O)C(C)C)[C@@H](C)CC [C10:0-A2, C10:0-IKQVKKLFKK-NH2] (Decanoyl-IKQVKKLFKK-NH2) | 32.6 ± 2.49 | 5.74 | 1.4 (≈ 1.98 µg/mL) | 90.6 (≈ 128 µg/mL) | 202.9 ± 17.5 | 90.6 (≈ 128 µg/mL) | 2.2 | 1.4 (≈ 1.98 µg/mL) | 1.4 (≈ 1.98 µg/mL) | 2.8 (≈ 3.96 µg/mL) | 1.4 (≈ 1.98 µg/mL) | 144.9 | 1.9 (≈ 2.68 µg/mL) | 106.8 | 1.4 (≈ 1.98 µg/mL) | 90.6 (≈ 128 µg/mL) | more than 60% | ~45 | 0.4 | 23.3 | MIC ([14]; yeast): 90.6 µM (≈ 128 µg/mL); TI Bacteria Gram (+), IC50/MIC average [11]: 17.2; remaining at 1 h [16]: ~20%; hemolysis [17]: around 50% |
| KLFKKLFKKLFK-NH2 [TA4, KLFKKLFKKLFK-NH2] | 46.4 ± 10.1 |  | 5.1 | 40.8 | >400 | 40.8 | 9.8 | 5.1 | 2.6 | 10.2 | 3.9 | 102.6 | 6.0 | 66.7 | 2.6 | 40.8 | more than 60% | ~65 | 1.1 | 11.9 | IC50 ([1]; read-out: IC50 ± SD, HeLa cells, MTT, 3.125–400 μM): 46 µM; MIC ([14]; against yeast): 40.8 µM; TI Bacteria Gram (+), IC50/MIC average [11]: 7.7; remaining at 1 h [16]: ~40%; hemolysis [17]: around 40% |
